In US8829014B2, “Thiazole and thiophene analogues, and their use in treating autoimmune diseases and cancers” (Board of Supervisors of Louisiana State University and …, priority 2006, dated 2014):
pIC50: −log10 of the molar value. Entries after “also recorded” stand apart in the source; their conditions may differ. Where two headings read alike, the source gives them in different places.

Key:
[1] = system: NF-κB; test: NF-κB inhibitor screen: basal NF-κB-dependent luciferase expression in HEK/NF-κB cell line; type: cell-based
Outline: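 HEK293 cells stably carrying a luciferase reporter under six NF-κB elements were treated with compound, unstimulated, 24 h after plating. Compounds were first tested at 1.0 μM (0.3% DMSO), later at six doses from 10 to 3300 nM, in triplicate. Brite-Glo luciferase signal was normalized to DMSO, or to the lowest dose for dose-response runs.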

[2] = system: AP-1; test: AP-1 inhibitor screen: basal AP-1-dependent luciferase expression in HEK/AP-1 cell line; type: cell-based
Outline: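 HEK293 cells stably carrying a luciferase reporter driven by three AP-1 elements were plated 24 hr, then given compound at 1.0 μM in 0.3% DMSO for 48 hr, in triplicate. Basal expression without stimulus was read as luminescence (Brite-Glo), normalized to DMSO; dose-response runs repeated two to four times.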

[3] = system: eIF4E; test: eIF4E inhibitor screen: luciferase under FGF 5′UTR in FaDu cells (highly cap-dependent translation); type: cell-based; settings: for luciferase expression under the control of the FGF 5′UTR: 1.0 μM, 48 h, FaDu UTR cells, normalized to DMSO (FIG. 8)
Excerpt: Since highly cap-dependent translation is associated with synthesis of proteins involved in cancer, a compound that inhibits this pathway may be used as an anti-cancer agent. The assay was developed by cloning the highly structured 5′ UTR of FGF, which requires high levels of eIF4E before protein synthesis can initiate, into the proper orientation of the reporter gene luciferase, and then stably transfecting the modified luciferase gene into the cell line FaDu that is known to have high levels of eIF4E. The activity of luciferase is then monitored in the presence and absence of the tested compound.
Generation of Stable Cell Lines: The pMS110 plasmid (pGL3-control plasmid from Promega which contains a neo selectable marker) was used to generate pMS110-5′UTR by cloning the 5′ UTR of FGF just upstream of the luciferase AUG start codon. FaDu cells, a head and neck cancer cell line, were transfected using Lipofectamine2000 (Invitrogen). Twenty-four hours after transfection G418 was added at 500 μg/ml. Cells were maintained in G418 for 14 days, and then individual colonies were transferred to a 96-well plate for propagation. Individual clones were analyzed for luciferase expression by plating 10^4 cells per well in a 96-well plate for 24 hours before lysing the cells and analyzing for luciferase activity in a Victor III (Perkin Elmer) or Lucy2 (Rosys Anthos). FaDu9000 and FaDuUTR were the clones that expressed the highest level of active luciferase following transfection of pMS110 and pMS110-5′UTR, respectively.
Analysis of Rapamycin Responsiveness: Cells of FaDu9000 and FaDuUTR were plated at 1×10^4 cells/well in a 96-well dish. Twenty-four hours after plating, 0.1% DMSO (vehicle control) or 10 nM rapamycin were added to each well, and the cells were maintained for an additional 24 or 48 hours. The cells were then lysed and luciferase activity was determined using BriteGlo (Promega) as per manufacturer's instruction and recorded using the Victor III. Following subtraction of background activity, the mean value of quadruplicate samples for a given experiment was determined, and the treated cells were normalized to the control. At least four separate experiments were conducted, and the mean and standard error were calculated. To determine if rapamycin affected cell viability, an MTS assay (Cell Proliferation One Solution, Promega) was carried out on each population at 48 hours in two separate experiments.
The FaDu cell line stably transfected with FGF 5′UTR was used to screen thirty-nine representative compounds, each at a concentration of 1.0 μM. Additional cells were treated with vehicle, 0.3% DMSO. Cells were plated for twenty-four hours in a 96-well plate. Each compound was then added to triplicate wells, and the cells were incubated for forty-eight hours before measuring luciferase activity as above. The mean luciferase activity was measured using Promega's Brite-Glo kit, and the mean for each sample was normalized to DMSO. The experiment was then repeated, and the average and standard deviation of the two experiments were determined (FIG. 8).

[4] = system: carageenan-induced edema; test: Carrageenan-induced rat paw edema test (anti-inflammatory activity); type: in vivo, Sprague-Dawley rats; settings: for inhibition in vivo at 50 mg/kg: po, 3 h; for In vivo inflammation % inhibition: rat paw edema induced by carageenan injection
Outline: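 Sprague-Dawley rats (male and female, 150-250 g), fasted 18 h, given compound orally at 50 mg/kg in 0.1% sodium CMC (alternatively i.v., s.c. or i.p.). 1% carrageenan injected sub-plantar in right hind paw 1 h later. Paw displacement read again 3 h later; % protection = [(Control−Test)/Control]×100 versus saline control.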

[5] = system: NF-κB; test: TNF-α-induced NF-κB-dependent luciferase expression in HEK cells; type: cell-based; parameters: NF-κB % inhibition: concentration or dose not given beside the values; settings: for NF-κB % inhibition: four lead compounds, Table 13
[6] = system: AP-1; test: PMA-induced AP-1 luciferase expression in HEK cells; type: cell-based; settings: for AP-1 % inhibition: four lead compounds, Table 13; for pIC50: 6 point dose-response curves, read-out: IC50 concentrations AP-1
[7] = system: cell lines from the skin, one tumorigenic and one non-tumorigenic; test: MTT viability in skin cell line pair, tumorigenic and non-tumorigenic; type: cell-based; settings: 10 μM, 48 h, MTT; tumorigenic vs non-tumorigenic line
Protocol: Additional compounds have also been tested for their ability to inhibit both TNF-α-induced NF-κB—expression and PMA-induced AP-1 expression. In both tests, the compound was added for 1 h, then the appropriate inducer was added, and luciferase activity was monitored 24 h later. Values were then normalized to the vehicle control, DMSO. Following the initial luciferase screens, studies were conducted to assess the cytotoxicity of the compounds in normal cells such as VSMC, HUVEC, or HPT cells. Human umbilical vein endothelial cells (HUVEC) represent the normal endothelium, vascular smooth muscle cells (VSMC) were represented by cells from the adult rat aorta, and human proximal tubule (HPT) cells represent the normal proximal tubule in vivo. These cells were grown to near confluency in multi-well plates, and were then treated for 48 h with either vehicle (0.1% DMSO) or 10 μM of each drug candidate. Following treatment, the media from the VSMC and HUVEC incubations were removed, and the amount of lactate dehydrogenase (LDH) released into the medium was determined with a commercial kit. LDH is normally confined to the cytosol, and its release represents “leakiness” of the plasma membrane. LDH activity was expressed as % increase over vehicle-treated cells. In another assay of viability, the treated VSMC and HUVEC were removed by trypsinization and treated with trypan blue, a dye that is taken up only by dead cells. The number of both live and dead cells was counted using an automated cell viability analyzer. The % decrease in numbers of viable cells was determined. Toxicity in the treated HPT cells was determined by the ethidium homodimer (EthHD) uptake assay. EthHD is a fluorescent dye that is excluded from live cells, but is taken up by cells that have lost permeability barriers. Inside the cell, EthHD produces a strong fluorescent signal, which is proportional to the number of dead cells. Results were expressed as a % increase in cell death over vehicle-treated cells. The lead compounds were also tested in two pairs of cell lines from either the skin or prostate, one tumorigenic and one non-tumorigenic, to test for any differences in toxicity or heightened sensitivity in the tumorigenic lines. The cells were treated for 48 h with vehicle (0.1% DMSO) or 10 μM of each drug candidate. Following treatment, the viability of the cells was determined by the MTT assay. In this assay, the MTT dye is converted only in viable cells by intracellular enzymes to a colorimetric product that is quantitated by a microplate reader.
(§1) For the results in Table 13, cells were grown to near confluency in multi-well plates, then treated for 48 h with either vehicle (0.1% DMSO) or 10 μM of each drug candidate. Following treatment, the media from the VSMC and HUVEC incubations were removed, and the amount of lactate dehydrogenase (LDH) released into the medium was determined with a commercial kit and expressed as a % increase over vehicle-treated cells. HPT toxicity was determined by the ethidium homodimer (EthHD) uptake assay. Inside the cell, EthHD produces a strong fluorescent signal, which is proportional to the amount of cell death, expressed as a % increase in cell death over vehicle-treated cells. The lead compounds were also tested in two pairs of cell lines from the skin or prostate, one tumorigenic and one non-tumorigenic, to test for differing toxicity or heightened sensitivity in the tumorigenic lines. The cells were treated for 48 h with vehicle (0.1% DMSO) or 10 μM of each drug candidate, and the viability of the cells was determined by the MTT assay, expressed as a % decrease in viability compared to vehicle-treated cells. The in vivo inflammation model measured the % inhibition of rat paw edema induced by carageenan injection.

[8] = system: cell lines from the prostate, one tumorigenic and one non-tumorigenic; test: MTT viability in prostate cell line pair, tumorigenic and non-tumorigenic; type: cell-based; settings: 10 μM, 48 h, tumorigenic vs non-tumorigenic line
Protocol: Additional compounds have also been tested for their ability to inhibit both TNF-α-induced NF-κB—expression and PMA-induced AP-1 expression. In both tests, the compound was added for 1 h, then the appropriate inducer was added, and luciferase activity was monitored 24 h later. Values were then normalized to the vehicle control, DMSO. Following the initial luciferase screens, studies were conducted to assess the cytotoxicity of the compounds in normal cells such as VSMC, HUVEC, or HPT cells. Human umbilical vein endothelial cells (HUVEC) represent the normal endothelium, vascular smooth muscle cells (VSMC) were represented by cells from the adult rat aorta, and human proximal tubule (HPT) cells represent the normal proximal tubule in vivo. These cells were grown to near confluency in multi-well plates, and were then treated for 48 h with either vehicle (0.1% DMSO) or 10 μM of each drug candidate. Following treatment, the media from the VSMC and HUVEC incubations were removed, and the amount of lactate dehydrogenase (LDH) released into the medium was determined with a commercial kit. LDH is normally confined to the cytosol, and its release represents “leakiness” of the plasma membrane. LDH activity was expressed as % increase over vehicle-treated cells. […] The number of both live and dead cells was counted using an automated cell viability analyzer. The % decrease in numbers of viable cells was determined. Toxicity in the treated HPT cells was determined by the ethidium homodimer (EthHD) uptake assay. […] Results were expressed as a % increase in cell death over vehicle-treated cells. […] Following treatment, the viability of the cells was determined by the MTT assay. In this assay, the MTT dye is converted only in viable cells by intracellular enzymes to a colorimetric product that is quantitated by a microplate reader.
as §1, with “The lead compounds were also tested in two pairs of cell lines from the skin or prostate, one tumorigenic and one non-tumorigenic, to test for differing toxicity or heightened sensitivity in the tumorigenic lines.” left out, “The in vivo inflammation model measured the % inhibition of rat paw edema induced by carageenan injection.” left out

Compound	luciferase expression under the control of the FGF 5′UTR [3]	In vivo inflammation % inhibition [4] [%]	AP-1 % inhibition [6] [%]	Differential Toxicity* Skin [7]	Differential Toxicity* Prostate [8]	also measured
2-(4-Methyl-2-methylamino-thiazol-5-yl)-3-(4-chloro-phenyl)-3H-quinazolin-4-one [Example 244]	inhibited luciferase expression	–	–	–	–	basal NF-κB-dependent luciferase, six-point dose response ([1]; 10 nM-3300 nM (FIG. 12), listed as Compound 4): substantial activity at submicromolar concentrations; also recorded: robust inhibition; inhibition of basal NF-κB-dependent luciferase expression ([1]; 3.3 μM (FIG. 12)): about 50%; inhibition of NF-κB (summary statement) ([1]; summary in the disclosure): capable of inhibiting; basal AP-1-dependent luciferase, six-point dose response ([2]; 10 nM-3300 nM (FIG. 14)): substantial activity at submicromolar concentrations; inhibition of highly cap-dependent translation (summary statement) ([3]; summary in the disclosure): capable of inhibiting
COc1ccc(C(=O)c2sc(Nc3ccccc3)nc2N)cc1 [Example 115, (4-Amino-2-phenylamino-thiazole-5-yl)-4-(methoxy-phenyl)-methanone]	increased luciferase expression	–	–	–	–	% Protection P ([4]; rat paw edema, 50 mg/kg, reading 3 hours after carrageenan, [(Control−Test)/Control]×100%, 50 mg/kg): 90.92%; basal NF-κB-dependent luciferase expression ([1]; 1.0 μM screen of 39 compounds (FIG. 11)): potentiated expression in one of the two experiments
O=C(c1sc(Nc2ccccc2)nc1-c1ccccc1)c1sc(Nc2ccccc2)nc1-c1ccccc1 [Example 126, Bis-(2-phenylamino-4-phenyl-thiazole-5-yl)-methanone]	increased luciferase expression	–	–	–	–	inhibition in vivo at 50 mg/kg ([4]; Rattus norvegicus, rat paw edema, 50 mg/kg, reading 3 hours after carrageenan, [(Control−Test)/Control]×100%, read-out: % Protection P): 64.5%; inhibition at 1 µM ([5]; Homo sapiens, HEK293, 1 uM, luciferase in HEK/NF-κB cells, as described in Example 398, read-out: NFkB inhibition @ 1 uM): 22.2%; inhibition at 1 µM ([6]; AP1, 1 uM, luciferase in HEK/AP-1 cells, as described in Example 398): 27.1%
CCOC(=O)Nc1nc(-c2ccccc2)c(-c2nc3ccccc3c(=O)n2-c2ccccc2)s1 [Example 159, [5-(4-Oxo-3-phenyl-3,4-dihydro-quinazolin-2-yl)-4-phenyl-thiazol-2-yl]-carbamic acid ethyl ester]	increased luciferase expression	–	–	–	–	inhibition in vivo at 50 mg/kg ([4]; carrageenan-induced rat paw edema, defined in Example 397, read-out: % Protection): 75%; inhibition at 1 µM ([1]; 1 uM, determined as described in Example 398, read-out: NFkB inhibition @ 1 uM): 80%; inhibition at 1 µM ([2]; AP1, 1 uM, determined as described in Example 398): 7%
Cc1ccccc1-n1c(-c2sc(Nc3ccccc3)nc2C)nc2ccccc2c1=O [PMCR 20]	–	42	73	Neither	Cancer	NF-κB % inhibition [5]: 21%
CNc1nc(-c2ccccc2)c(-c2nc3ccccc3c(=O)n2-c2ccccc2OC)s1 [PMCR 75]	–	56	90	Both	Normal	pIC50 ([5]; 6 point dose-response curves, read-out: IC50 concentrations NF-κB): 6.30; pIC50 [6]: 6.70
Cc1nc(Nc2ccc(Cl)cc2)sc1-c1nc2ccccc2c(=O)n1-c1ccccc1Cl [PMCR 120]	–	58	27	Cancer	Both	–
CC(=O)c1ccc(-n2c(-c3cc(-c4ccncc4)c(N4CCOCC4)s3)nc3ccccc3c2=O)cc1 [PMCR 242]	–	80	84	Neither	Cancer	inflammation in the in vivo assay ([4]; rat paw edema): strongly inhibited inflammation; NF-κB % inhibition [5]: 66%; pIC50 [6]: 5.30
Bis-(2-phenylamino-4-benzayl-thiazole-5-yl)-methanone [Example 133]	inhibited luciferase expression	–	–	–	–	% Protection P ([4]; rat paw edema, 50 mg/kg, reading 3 hours after carrageenan, [(Control−Test)/Control]×100%): 19.09%; NFkB inhibition @ 1 uM ([5]; 1 uM, luciferase in HEK/NF-κB cells, as described in Example 398): 17.74; AP-1 inhibition @ 1 uM ([6]; 1 uM, luciferase in HEK/AP-1 cells, as described in Example 398): 24.53
N-{4-{5-[4-(4-acetylamino-phenyl)-5-morpholin-4-yl-thiophene-2-carbonyl]-2-morpholin-4-yl-thiophene-3-yl}-phenyl)-acetamide [Example 113]	increased luciferase expression	–	–	–	–	–
